Data set [1] in a line: Octanol-buffer partition coefficient, log D at pH 7.4 by shake-flask method. The format is physicochemical.
The target in data set [2] is T1, Sodium channel protein type 2 subunit alpha (Homo sapiens, UniProt Q99250). Briefly: Inhibition of human Nav1.2 channel expressed in HEK cells at 10 uM by patch-clamp electrophysiology method. The format is cell-based. As to conditions: HEK293. (In patch-clamp work, channel activity is measured electrically.)
Target sequence in this assay (Q99250 whole entry, looked up): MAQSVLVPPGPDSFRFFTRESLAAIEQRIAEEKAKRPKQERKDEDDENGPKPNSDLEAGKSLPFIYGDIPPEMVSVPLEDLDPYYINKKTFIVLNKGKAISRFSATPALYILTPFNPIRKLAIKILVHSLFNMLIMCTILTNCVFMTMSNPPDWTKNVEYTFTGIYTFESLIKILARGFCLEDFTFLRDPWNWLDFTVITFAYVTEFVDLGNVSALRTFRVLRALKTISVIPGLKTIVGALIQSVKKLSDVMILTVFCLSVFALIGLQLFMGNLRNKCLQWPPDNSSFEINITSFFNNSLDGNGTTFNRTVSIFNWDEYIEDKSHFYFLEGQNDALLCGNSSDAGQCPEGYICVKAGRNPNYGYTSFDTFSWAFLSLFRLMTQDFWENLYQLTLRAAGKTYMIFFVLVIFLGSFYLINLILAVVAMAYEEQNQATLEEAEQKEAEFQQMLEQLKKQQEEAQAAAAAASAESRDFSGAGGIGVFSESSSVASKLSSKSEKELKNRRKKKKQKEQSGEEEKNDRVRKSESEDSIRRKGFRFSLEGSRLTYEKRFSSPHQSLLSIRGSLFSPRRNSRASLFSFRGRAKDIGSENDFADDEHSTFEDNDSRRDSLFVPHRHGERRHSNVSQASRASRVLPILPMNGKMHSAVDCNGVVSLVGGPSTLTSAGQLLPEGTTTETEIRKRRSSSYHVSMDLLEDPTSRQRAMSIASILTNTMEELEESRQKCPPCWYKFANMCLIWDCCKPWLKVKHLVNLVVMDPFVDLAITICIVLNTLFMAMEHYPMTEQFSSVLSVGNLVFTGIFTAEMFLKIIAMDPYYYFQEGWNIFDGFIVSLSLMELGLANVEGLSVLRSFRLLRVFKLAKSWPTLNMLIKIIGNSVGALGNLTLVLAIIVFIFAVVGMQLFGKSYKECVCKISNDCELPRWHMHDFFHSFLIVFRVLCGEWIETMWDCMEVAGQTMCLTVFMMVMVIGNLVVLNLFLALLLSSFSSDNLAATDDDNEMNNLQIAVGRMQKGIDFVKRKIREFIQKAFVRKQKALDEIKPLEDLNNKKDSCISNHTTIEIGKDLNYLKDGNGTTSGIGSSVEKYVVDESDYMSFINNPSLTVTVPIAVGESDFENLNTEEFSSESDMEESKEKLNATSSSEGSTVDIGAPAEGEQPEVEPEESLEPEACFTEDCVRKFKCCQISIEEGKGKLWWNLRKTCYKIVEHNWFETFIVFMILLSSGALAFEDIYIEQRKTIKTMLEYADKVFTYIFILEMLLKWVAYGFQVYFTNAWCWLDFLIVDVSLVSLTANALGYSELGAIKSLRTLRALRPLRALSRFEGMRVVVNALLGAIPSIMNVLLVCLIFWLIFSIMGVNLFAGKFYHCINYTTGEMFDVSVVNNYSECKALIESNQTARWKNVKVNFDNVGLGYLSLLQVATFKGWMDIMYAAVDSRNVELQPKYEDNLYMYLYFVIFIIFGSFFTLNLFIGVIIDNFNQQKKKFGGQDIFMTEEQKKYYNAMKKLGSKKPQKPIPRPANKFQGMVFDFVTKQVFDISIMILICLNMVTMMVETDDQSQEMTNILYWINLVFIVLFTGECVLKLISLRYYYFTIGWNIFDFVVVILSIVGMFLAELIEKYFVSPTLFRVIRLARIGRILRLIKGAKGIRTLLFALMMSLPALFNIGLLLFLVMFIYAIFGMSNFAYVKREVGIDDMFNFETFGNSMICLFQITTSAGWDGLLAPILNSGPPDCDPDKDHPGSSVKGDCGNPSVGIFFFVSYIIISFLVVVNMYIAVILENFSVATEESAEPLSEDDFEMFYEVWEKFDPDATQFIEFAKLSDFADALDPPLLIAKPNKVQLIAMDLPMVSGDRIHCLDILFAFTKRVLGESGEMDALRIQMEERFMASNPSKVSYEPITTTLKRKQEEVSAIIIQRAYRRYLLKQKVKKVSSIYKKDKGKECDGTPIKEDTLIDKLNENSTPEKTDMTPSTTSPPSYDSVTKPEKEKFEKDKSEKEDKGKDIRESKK
Data set [3] in a line: Dissociation constant, pKa by potentiometric pH-metric method. The format is physicochemical.
Data set [4] has as its target T1, Sodium channel protein type 2 subunit alpha. In words: Inhibition of human Nav1.2 channel expressed in HEK cells at 100 uM by patch-clamp electrophysiology method. The format is cell-based. As to conditions: HEK293.
Target sequence in this assay (Q99250 whole entry, looked up): as above
Data set [5] shares this target. In words: Inhibition of human Nav1.2 channel expressed in HEK cells by patch-clamp electrophysiology method. The format is cell-based, HEK293.
Target sequence in this assay (Q99250 whole entry): as the sequence (Q99250 whole entry, looked up) above

Calls of active or inactive are those of the source. The rule behind the calls is not given here. Bounds are passed on as bounds.

In turn, `Clc1ccc(-c2nc(-c3ccccc3)c[nH]2)cc1` displayed a pH-dependent lipophilicity (logD) in data set [1] of 4.27. Besides, the inhibition in data set [2] stood at 92.5%; in data set [4], 100%. This compound also came in with a pKa in data set [3] of 5.37. Further, inhibition in data set [5] was half-maximal at 1400 nM (IC50).
For `FC(F)(F)c1cccc(-c2c[nH]c(-c3ccccc3)n2)c1`, in that order: 4.72, 82.9%, 100%, 5.27 and 2700 nM.
For `c1ccc(-c2c[nH]c(-c3ccccc3)n2)cc1`, in that order: 3.72, 7.8%, 80.5%, 5.65 and 40600 nM.
In the case of `Clc1cccc(-c2nc(-c3ccccc3)c[nH]2)c1`, the log distribution coefficient (logD) in data set [1] is 4.54. The results for the inhibition in data set [2] and in data set [4] were 7.5% and 92.2%, respectively. Besides, in data set [3], the pKa was 5.12.
In the case of `FC(F)(F)c1ccc(-c2nc(-c3ccccc3)c[nH]2)cc1`, the logD in data set [1] is 4.9. The pKa in data set [3] was 5.19.
Compound `FC(F)(F)c1ccc(-c2c[nH]c(-c3ccccc3)n2)cc1` had a logD in data set [1] of 4.78. The inhibition in data set [2] worked out at 91.6%; in data set [4], 100%. In addition, the pKa in data set [3] amounted to 5.31. For the same compound, the IC50 in data set [5] turned out to be 1400 nM.
`O=[N+]([O-])c1cccc(-c2nc(-c3ccccc3)c[nH]2)c1`: the logD in data set [1] worked out at 3.89. For the same compound, the inhibition entry in data set [2] is “inactive”. This compound yielded a pKa in data set [3] of 4.92. In data set [4], this compound registered an inhibition of 20.4%.
Regarding `COc1ccc(-c2nc(-c3ccccc3)c[nH]2)cc1`, the logD in data set [1] came out at 3.62. Moreover, the pKa in data set [3] is 6.03.
For `Clc1cccc(-c2c[nH]c(-c3ccccc3)n2)c1`, in that order: 4.76 and 5.45.
`Clc1ccc(-c2c[nH]c(-c3ccccc3)n2)cc1` came in with a logD in data set [1] of 4.53. The inhibition in data set [2] turned out to be 31.5%; in data set [4] it was 96.6%. This compound gave a pKa in data set [3] of 5.47.
For `COc1cccc(-c2nc(-c3ccccc3)c[nH]2)c1`, in data set [1], the logD worked out at 3.84. Besides, in data set [2], the inhibition result was “inactive”. Moreover, the pKa in data set [3] was found to be 5.57. The compound also gave an inhibition in data set [4] of 41.7%.
For `O=[N+]([O-])c1ccc(-c2c[nH]c(-c3ccccc3)n2)cc1`, in that order: 3.95, “inactive”, 5.12 and 30.3%.
For `COc1ccc(-c2c[nH]c(-c3ccccc3)n2)cc1`, in that order: 3.66, “inactive”, 5.83 and 33.3%.
`Nc1nnc(-c2cccc(Cl)c2Cl)c(N)n1` [LAMOTRIGINE]: the inhibition was 12.1% in data set [2] and 35.1% in data set [4]. The compound also yielded an IC50 in data set [5] of over 100000 nM.
Take `COc1cccc(-c2c[nH]c(-c3ccccc3)n2)c1`: the logD in data set [1] amounted to 3.74. Besides, the inhibition in data set [2] was 14.2%; in data set [4] it was 35.6%. The compound further gave a pKa in data set [3] of 5.58.
For `O=[N+]([O-])c1cccc(-c2c[nH]c(-c3ccccc3)n2)c1`, in that order: 3.9, 15.6%, 85.8% and 4.82.
On to `O=[N+]([O-])c1ccc(-c2nc(-c3cccc(C(F)(F)F)c3)c[nH]2)cc1`, for which the inhibition in data set [2] turned out to be 86.9%; in data set [4], 100%. For the same compound, the IC50 in data set [5] amounted to 2500 nM.
As for `O=[N+]([O-])c1ccc(-c2nc(-c3ccccc3)c[nH]2)cc1`, the logD in data set [1] stood at 4.06. For the same compound, the inhibition was 57.1% in data set [2] and 92.6% in data set [4]. The pKa in data set [3] was 4.74.
With `FC(F)(F)c1cccc(-c2c[nH]c(-c3ccc(Cl)cc3)n2)c1`, the results for the inhibition in data set [2] and in data set [4] were 27.5% and 43.6%, respectively. Besides, the IC50 in data set [5] was over 100000 nM.
Consider `FC(F)(F)c1cccc(-c2nc(-c3ccccc3)c[nH]2)c1`, for which the logD in data set [1] came out at 4.54. Moreover, the figures for the inhibition in data set [2] and in data set [4] were 49.2% and 95.2%, respectively. In data set [3], this compound yielded a pKa of 5.11.
`FC(F)(F)c1cccc(-c2c[nH]c(-c3cccc(C(F)(F)F)c3)n2)c1`: the inhibition in data set [2] and in data set [4] was 100% each time. This compound came in with an IC50 in data set [5] of 200 nM.

One may read the logD as the decadic logarithm of the distribution of all forms, ionised or not, between an organic phase and buffer at a given pH. High values mean a more lipophilic compound, low ones a more hydrophilic compound. As a reminder, the inhibition is the share of the control response that was lost under treatment. One may read the pKa as the pH at which an ionisable group is half protonated. Broadly, the IC50 is the concentration that inhibits the measured activity by half. A lower IC50 goes with greater potency.

The values above are taken from ChEMBL document CHEMBL1136877, “2,4(5)-diarylimidazoles as inhibitors of hNaV1.2 sodium channels: pharmacological evaluation and structure-property relationships” (Bioorg Med Chem, 2009).
